# Paper PMC12649408 (Antibiotics, 2025)
# Read-outs that look alike come from different tables or passages of the source. Bridge positions count the residues as written; N and C are the ends. Ends that are not written are not given here.
# Legend:
# [1] = not given; remark: listed apart in the source
# [2] = tested on: C. albicans clinical isolate 8.2; details: Table 2; resistant clinical isolate 8.2; Sabouraud broth, 30 °C, 24 h, 100% inhibition
# Description: (§1) Using the two-fold serial dilution method, antifungal activities of the obtained analogues were tested against different C. albicans strains: susceptible collection strain ATCC 18804; resistant to azoles and anidulafungin collection strain ATCC 10231 and clinical isolates 9.1 and 8.2 [7].
# (§2) The antifungal assay was performed by the microdilution method using 96-well microplates and Sabouraud broth as described earlier. […] After that, the plates were incubated at 30 °C for 24 h. A control without antifungals was also tested. Fungal growth was evaluated by measuring absorbance at 630 nm. […] All the experiments were performed twice in triplicate. Microscopic analysis of fungal growth was performed using inverted microscopy (Olympus, Tokyo, Japan). A 0.1% BSA solution was used for the blocking of each microplates well to prevent the adsorption of antifungal agents.
# [3] = tested on: C. albicans ATCC 18804; details: Sabouraud broth
# Description: as §1, §2
# [4] = tested on: C. albicans clinical isolate 9.1; details: Table 2; resistant clinical isolate 9.1; Sabouraud broth, 30 °C, 24 h, 100% inhibition
# Description: as §1, §2
# [5] = tested on: C. albicans ATCC 10231; details: Table 2; strain resistant to azoles and anidulafungin; Sabouraud broth, 30 °C, 24 h, 100% inhibition
# Description: as §1, §2
# [6] = not given; remark: listed apart in the source
# [7] = biological target: T1, trypsin (Bos taurus, UniProt P00760); details: 24 h, 37 °C, 50 mM ammonium bicarbonate buffer pH 8.0, 2.5 ng trypsin per 1 μg peptide, SDS-PAGE
# T1 construct: gene PRSS1
# Description: (§5) For that purpose, peptides were incubated for 24 h at 50 mM ammonium bicarbonate buffer, pH 8.0, with or without protease.
# (§6) The results of proteolysis were monitored by SDS-PAGE (17% T, 3%C). α-Casein, known for its susceptibility to proteolytic digestion, was used in these experiments for comparison.
# [8] = not given; remark: listed apart in the source
# [9] = not given; remark: listed apart in the source
# [10] = not given; remark: listed apart in the source
# [11] = tested on: human red blood cells (hRBCs); details: 100 µM
# Description: All procedures were approved by the Ethics Committee of the Institute of Experimental Medicine (protocol 1/20 of 2/27/2020) and comply with the ethical principles of the Declaration of Helsinki. […] Samples were centrifuged to sediment intact red blood cells. Supernatants containing released hemoglobin were transferred to 96-well microplates, and absorbance was measured at 405 nm. Untreated hRBCs in PBS (A0) and hRBC treated with 0.1% Triton X-100 (Sigma-Aldrich) (Acontrol) were used as negative and positive controls, respectively. The percentage of hemolysis was calculated as [(Asample − A0)/(Acontrol − A0)] × 100%. The experiment was carried out twice in duplicate.
# [12] = not given; remark: listed apart in the source
# [13] = not given; remark: listed apart in the source
# [14] = not given; remark: listed apart in the source
# [15] = not given; remark: listed apart in the source
# [16] = tested on: C. albicans ATCC 18804; assay: Checkerboard antifungal assay; format: cell-based; details: Sabouraud broth, 24 h, 30 °C, synergism at FICI ≤ 0.5, additive action at 0.5 < FIC ≤ 1
# Description: All three selected analogues acted synergistically with caspofungin, and the FICI value for NaD1-2 was lower than that of the tobacco defensin.
# Two-fold serial dilutions of each test agent were prepared in 96-well microplates in water or 1% DMSO in the case of caspofungin and mixed with equal volumes of suspensions of C. albicans cells (4 × 10^4 cells/mL) in Sabouraud broth, followed by 24 h incubation at 30 °C. Controls containing DMSO at a final concentration of 0.5% (cells only and single agent dilutions) were included in all caspofungin combination assays. […] To assess the combined effect of antifungal substances, the fractional inhibitory concentration index (FICI) was calculated as FICI = ([A])/([MICA]) + ([B])/([MICB]), where [MICA] and [MICB] are the MICs of the substances A and B, respectively, and [A] and [B] are the concentrations of the substances A and B in iso-effective combinations, respectively.
# [17] = not given; remark: listed apart in the source
# [18] = tested on: α-chymotrypsin; details: 24 h, 37 °C, 50 mM ammonium bicarbonate buffer pH 8.0, 10 ng α-chymotrypsin per 1 μg peptide, SDS-PAGE
# Description: as §5, §6
# [19] = not given; remark: listed apart in the source
# [20] = tested on: Caco-2 cell monolayer; assay: Cytotoxicity assay, resazurin method; format: cell-based, human
# Description: (§3) Cytotoxic activity of the peptides was investigated against human peripheral blood mononuclear cells (PBMCs) and the Caco-2 epithelial monolayer as an in vitro model of the intestinal barrier using a RPMI-1640 medium and resazurin-test.
# (§4) In brief, Caco-2 cells in a monolayer or 2 × 10^6 PBMCs per well were incubated with serial dilutions of the peptides for 24 h in RPMI-1640. Resazurin (Sigma, St. Louis, MO, USA) was then added at a final concentration of 70 µM and the plates were incubated for 20 h. Untreated cells (F0) and cells treated by 0.1% Triton X-100 (Sigma-Aldrich) (Fcontrol) were used as negative and positive controls, respectively. Cell viability was assessed by resorufin fluorescence using a 535/595 nm filter and a PlateReader AF2200 as ((Fsample − F0)/(Fcontrol − F0)) × 100%. […] The experiment was carried out twice in duplicate.
# [21] = tested on: PBMCs; assay: Cytotoxicity assay, resazurin method; format: cell-based, human
# Description: as §3, §4
# [22] = Caco-2 monolayer, RPMI-1640, resazurin-test
# T1 sequence (P00760 24-246): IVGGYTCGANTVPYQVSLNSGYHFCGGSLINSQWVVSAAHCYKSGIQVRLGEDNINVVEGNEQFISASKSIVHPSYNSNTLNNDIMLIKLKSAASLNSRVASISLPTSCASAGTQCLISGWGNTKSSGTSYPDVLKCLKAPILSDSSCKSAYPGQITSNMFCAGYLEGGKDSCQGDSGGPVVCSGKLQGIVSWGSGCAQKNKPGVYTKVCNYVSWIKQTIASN
substance,measurement,setting,value
"RECKTESNTFPGICITKPPCRKACISEKFTDGHCSKILRRCLCTKPC (disulfide 3-47, 14-34, 20-41, 24-43) [NaD1]","Random, DPC micelles",,34.2%
same,"β-Sheet, aqueous solution",[1],35.4%
same,MIC,[2],6.25 µM
same,IC50,"[3]; 50 mM NaCl, 50% inhibition",12.5 to 25 µM
same,MIC,"[3]; 50 mM NaCl, 100% inhibition",50 µM
same,IC50,"[3]; 150 mM NaCl, 50% inhibition",> 50 µM
same,MIC,"[3]; Table 2, 30 °C, 24 h, 100% inhibition of fungal growth, absorbance 630 nm, two-fold dilutions, twice in triplicate",6.25 µM
same,IC50,"[3]; Table 3, No Salts, 50% inhibition of fungal growth",1.56 to 3.13 µM
same,MIC,"[3]; Table 3, No Salts, 100% inhibition of fungal growth",6.25 µM
same,IC50,"[3]; […] CaCl2, 50% inhibition",> 50 µM
same,MIC,"[3]; […] CaCl2, 100% inhibition",>50 µM
same,IC50,"[3]; […] MgCl2, 50% inhibition",3.13 to 6.25 µM
same,MIC,"[3]; […] MgCl2, 100% inhibition",12.5 µM
same,MIC,[4],6.25 µM
same,MIC,[5],6.25 µM
same,"Random, SDS micelles",[6],31%
same,stability to trypsin digestion,[7],high stability
same,"β-Turn, SDS micelles",[8],22.2%
same,"α-Helix, DPC micelles",[9],9.3%
same,"β-Sheet, DPC micelles",[10],35.4%
same,Hemolysis at 100 µM,[11],14%
same,"β-Turn, aqueous solution",[12],21.3%
same,"Random, aqueous solution",[13],35.8%
same,"β-Sheet, SDS micelles",[14],31%
same,"α-Helix, aqueous solution",[15],7.5%
same,FICI LL-37,[16]; combination of the peptide with LL-37,0.38
same,FICI Casp,[16]; combination of the peptide with caspofungin,0.31
same,"α-Helix, SDS micelles",[17],15.8%
same,stability to chymotrypsin digestion,[18],high stability
same,"β-Turn, DPC micelles",[19],21.1%
same,concentration at which cell viability was 0% (100% cell death),[20]; [22],37.5 µM
same,concentration at which cell viability was 50%,[20]; [22],10.5 µM
same,СС50 Caco-2,"[20]; Table S2, monolayer, 24 h in RPMI-1640, resazurin, twice in duplicate",10.5 µM
same,cell viability,"[21]; PBMCs, peptide 100 μM, RPMI-1640, resazurin-test",approximately 72%
same,СС50 PBMCs,"[21]; Table S2, 24 h in RPMI-1640, resazurin, twice in duplicate",> 100 µM
"H-RECKTESNTFPGICITKPPCRKACISEKFTDGHCSKIRRRCLCTKPC-OH (disulfide 3-47, 14-34, 20-41, 24-43)","Random, DPC micelles",,32.9%
same,"β-Sheet, aqueous solution",[1],34.3%
same,"Random, SDS micelles",[6],31.2%
same,"β-Turn, SDS micelles",[8],21.8%
same,"α-Helix, DPC micelles",[9],15.5%
same,"β-Sheet, DPC micelles",[10],31.1%
same,"β-Turn, aqueous solution",[12],21.2%
same,"Random, aqueous solution",[13],36.2%
same,"β-Sheet, SDS micelles",[14],32.8%
same,"α-Helix, aqueous solution",[15],8.3%
same,"α-Helix, SDS micelles",[17],14.2%
same,"β-Turn, DPC micelles",[19],20.5%
"H-RECKTESNTFPGICITKPPCRKACISEKFTDGHCSKIRRRCLCRRPC-OH (disulfide 3-47, 14-34, 20-41, 24-43)","Random, DPC micelles",,32.9%
same,"β-Sheet, aqueous solution",[1],30.7%
same,"Random, SDS micelles",[6],31%
same,"β-Turn, SDS micelles",[8],21.7%
same,"α-Helix, DPC micelles",[9],14.1%
same,"β-Sheet, DPC micelles",[10],31.2%
same,"β-Turn, aqueous solution",[12],22.7%
same,"Random, aqueous solution",[13],37.7%
same,"β-Sheet, SDS micelles",[14],30.8%
same,"α-Helix, aqueous solution",[15],8.9%
same,"α-Helix, SDS micelles",[17],16.6%
same,"β-Turn, DPC micelles",[19],21.7%
